# Reference: US9957236B2, “Selective inhibitors interfering with fibroblast growth factor receptor and FRS2 interaction for the prevention and treatment of cancer and other diseases” (LIMITED LIABILITY COMPANY “RUSSIAN PHARMACEUTICAL …, priority 2014, dated 2018)
# Test system: Mel Kor metastatic melanoma cells
# Experiment: Crystal Violet proliferation assay, Mel Kor
# Assay type: cell-based
# Details: hardly expressed FGFR2, bFGF 100 ng/ml, 7 days
# Description: This research used additional cell lines: SKOV3 (ovarian cancer, ATCC # HTB-77), HS578T (breast cancer, ATCC # HTB-126), T47D (breast cancer, ATCC #HTB-1336), modified line of non-small cells lung cancer A549, line of metastatic melanoma of skin Mel Kor (RF Patent No. 2287578), and additional study of antiangiogenic activity—cell line SVEC-4-10 (endothelial cells, ATCC #CRL-2181).
# The cells were cultivated in environment RPMI-1640 (PANECO) (SKOV3, HS578T, T47D, Mel-Kor) or DMEM (PANECO) (SVEC-4-10) containing 10% of embryonal serum cattle (FCS, HyClone), 2 mM glutamine (PANECO), antibiotics (100 IU/mL penicillin and […] streptomycin (all PANECO)) at 37° C. and 5% CO2. Cells at 70-80% monolayer were used for the experiments.
# The cells were planted in low density (30 t of cells/ml) in triplets on a 96-cavity plate in an environment containing 0.1% of FCS serum. […] Growth of cells was determined by the modified “Crystal Violet mitogenic method” for 7 days after the experiment start. […] The dye was dissolved in ethanol and measured on a spectrophotometer at 540-560 nm. The curve of cell proliferative activity inhibition was built by the dependence of the percent of the cell quantity (Y axis) on concentration of inhibitor RPT835 in the cavity of the plate (X axis). […]
compound,measurement,value
"Cc1cc([N+](=O)[O-])c(NS(=O)(=O)c2cccc(C(=O)O)c2)cc1-c1cccnc1 [RPT835, 3-(N-(4-methyl-2-nitro-5-(pyridin-3-yl)phenyl)sulfamoyl)benzoic acid]",inhibition of proliferative activity,did not block
